# Measurements from ChEMBL document CHEMBL3421556, “Bis(aminomethyl)phosphinic Acid, a Highly Promising Scaffold for the Development of Bacterial Urease Inhibitors” (ACS Med Chem Lett, 2015).
# What was measured:
# [1] = Inhibition of urease from Sporosarcina pasteurii CCM 2056 using urea as substrate by Berthelot colorimetric assay
# [2] = Inhibition of urease from Proteus mirabilis CCM 1944 using urea as substrate by Berthelot colorimetric assay
SMILES,Ki ([1]; read-out: Ki) [µM],Ki ([2]; read-out: Ki) [µM],Ki [1],Ki [2]
NCP(=O)(O)CN,80,82,,
CNCP(=O)(O)CN,1.59,34,,
CCCNCP(=O)(O)CN,11.2,16,,
CCCCNCP(=O)(O)CN,9.6,25.9,,
CC(C)CNCP(=O)(O)CN,270,416,,
CCCCCNCP(=O)(O)CN,13.3,19,,
CCCCCCNCP(=O)(O)CN,0.108,0.202,,
CCCCCCCNCP(=O)(O)CN,543,778,,
CCCCCCCCNCP(=O)(O)CN,,,Not Active,Not Active
NCP(=O)(O)CNC1CCCCC1,,,Not Active,Not Active
CN(C)CP(=O)(O)CN,4.66,24.4,,
CCN(CC)CP(=O)(O)CN,,,Not Active,Not Active
NCP(=O)(O)CN1CCCCC1,,,Not Active,Not Active
CN(Cc1ccccc1)CP(=O)(O)CN,14.2,58.3,,
CNCP(=O)(O)CNC,4.3,17.2,,
O=P(O)(CNCc1ccccc1)CNCc1ccccc1,30.1,24.5,,
CN(C)CP(=O)(O)CN(C)C,,243,Not Active,
CC(=O)NO [ACETOHYDROXAMIC ACID],3.3,5.7,,
